Laboratory results as given in patent publication US5594103A, “Lantibiotics similar to nisin a” (Stichting Nederlands Instituut Voor Zuivelonderzoek (NIZO), priority 1991, dated 1997).
Values after ≈ are worked out from the molar mass of the structure shown.

Tests used:
[1] = tested on: Micrococcus flavus DSM 1719; assay: agar diffusion bioassay, M. flavus as indicator; type: cell-based
Method: (§1) The strain NIZO 22186 was isolated from an industrially obtained fermented milk product and identified as a L. lactis strain which ferments sucrose and produces an antimicrobial activity in the culture medium. This antimicrobial activity was determined by the agar diffusion bioassay method [Tramer and Fowler, J. Sci. Food Agric. 15 (1964) 522-528] using Micrococcus flavus DSM 1719 cultured in nutrient broth(Difco) as indicator. The supernatant of a culture of strain […] cultured on lactose M17 medium (Difco) containing 0-5% sucrose or glucose contained an antimicrobial activity which, compared with strain NIZO R5 [Galesloot and Pette, Neth. […] The absorption was monitored at 220 nm. […] The purified peptide material from strain […] and purified commercial nisin A were then hydrolysed for 24 hours in 6N HCl at 110° C. under nitrogen, concentrated by freeze-drying and, after dissolving in 0.2M Na citrate buffer of pH 2.2, analyzed in a LKB 4151 amino acid analyser. […]
(§2) The antimicrobial activity of nisin Z was compared with that of nisin A. In this case, and for further comparisons of the two lantibiotics, use was made of preparations which had been purified with the aid of RP-HPLC [see above] and for which the precise amounts of lantibiotic had been determined by determining the absorption at 220 nm. […]

[2] = tested on: Brevibacterium linens ATCC 9174; assay: inhibition spectrum, agar diffusion method; type: cell-based
Text: (§3) The antimicrobial activity of nisin Z was compared with that of nisin A. In this case, and for further comparisons of the two lantibiotics, use was made of preparations which had been purified with the aid of RP-HPLC [see above] and for which the precise amounts of lantibiotic had been determined by determining the absorption at 220 nm. […] The difference comprised both the shape and the gradient of the dose/response curve which relates the amount of lantibiotic added and the diameter of the inhibition zones. In this context it should be pointed out that nisin concentrations which are used in practice are always higher than 2.5 μg/ml [Delves-Broughton, Food Manufacture, March 1987 pp. 63-64]. so that measurements at lower concentrations are more of academic than of practical interest. […] Milk Dairy J., 15 (1961) 127-132]. […] A differentiation between these is made by determining the minimum inhibitory concentrations (MIC) of nisin Z and nisin A which effected growth inhibition in the case of the microorganisms used. In this determination use was also made of M. flavus DSM1719 and S. thermophilus Rs cultured at 37° C. in, respectively, nutrient broth (Difco) and whey permeate containing 0.2% yeast extract. Various amounts of nisin Z and nisin A were added to exponentially growing cultures of both organisms, after which the growth was compared with that of cultures to which no lantibiotic had been added.

[3] = tested on: Clostridium tyrobutyricum BZ15; assay: inhibition spectrum, agar diffusion method; type: cell-based
Text: as §3

[4] = tested on: Lactococcus lactis subsp. cremoris BA3; assay: inhibition spectrum, agar diffusion method; type: cell-based
Text: as §3

[5] = tested on: Listeria monocytogenes strain 1, 4B, 13 and 669; assay: inhibition spectrum, agar diffusion method; type: cell-based
Text: as §3

[6] = tested on: Bacillus cereus strains VC1, P7 and C5; assay: inhibition spectrum, agar diffusion method; type: cell-based
Text: as §3

[7] = tested on: S. thermophilus Rs; assay: agar diffusion bioassay, S. thermophilus Rs as indicator; type: cell-based; conditions: S. thermophilus Rs in TGV medium, versus nisin A
Method: as §1, §2

[8] = tested on: M. flavus DSM1719; assay: minimum inhibitory concentration in exponentially growing cultures; type: cell-based; conditions: 37° C., nutrient broth
Text: as §3, with “Various amounts of nisin Z and nisin A were added to exponentially growing cultures of both organisms, after which the growth was compared with that of cultures to which no lantibiotic had been added.” left out

[9] = tested on: S. thermophilus Rs; assay: as above; type: cell-based; conditions: 37° C., whey permeate containing 0.2% yeast extract
Text: as §3, with “Various amounts of nisin Z and nisin A were added to exponentially growing cultures of both organisms, after which the growth was compared with that of cultures to which no lantibiotic had been added.” left out

[10] = tested on: trypsin; assay: sensitivity for proteolytic enzymes (RP-HPLC integrity and residual activity); type: physicochemical; conditions: nisin Z versus nisin A
Method: (§4) The sensitivity of the lantibiotics for some proteolytic enzymes has been described [Hurst, see above]. The sensitivity of nisin Z and nisin A for the proteolytic enzymes trypsin and chymotrypsin were determined by determining the integrity and the biological residual activity of the lantibiotics with the aid of, respectively, RP-HPLC and the agar diffusion assay [see above] after incubation with one of these enzymes.

[11] = tested on: chymotrypsin; assay: as above; type: physicochemical; conditions: nisin Z versus nisin A
Method: as §4

[12] = tested on: anti-nisin A antibodies; assay: competitive ELISA with anti-nisin A antibodies; type: binding
Text: Because the only difference between nisin Z and nisin A consists in the His27Asn substitution, the agreement between nisin Z and nisin A in respect of proteolytic sensitivity for these two enzymes is easily explainable. However, there are significant differences in physicochemical characteristics between the two abovementioned lantibiotics.

[13] = solubility determination; type: physicochemical; conditions: for Solubility: 0.15M NaCl, room temperature
[14] = tested on: Micrococcus flavus (M. f.) strain DSM 1790; assay: MIC bioassay from OD600nm inhibition curves; type: cell-based; conditions: 8 hours at 30° C., shaken; less than 1% increase in OD600nm
Method: (§5) The antimicrobial activities referred to above were measured in a bioassay using Micrococcus flavus (M. f.) strain […], Bacillus cereus (B.c.) strain 5227 and Strepococcus thermophilus (S.t.) strain 3218 as indicator strains. Minimum inhibitory concentration (MIC) values were determined in the following way. Cultures of indicator organisms grown overnight were diluted to OD600nm values or 0.05 (M.f.) or 0.025 (S.t. and B.c.) and divided into 10 5 ml portions in tubes. These tubes were inoculated with various amounts of nisin A or (mutant) nisin Z and incubated aerobically under the following conditions (M.f.: 8 hours at 30° C., shaken; S.t.: 3 hours at 37° C., without shaking; B.c.: 6 hours at 30° C., shaken). The OD600nm was then measured. Without the addition of nisin, the final OD600nm values were approximately 1.2 for M.f., 0.5 for S.t. and 0.8 for B.c. All experiments were carried out in triplicate. The MIC values were determined from the inhibition curves by calculating the minimum concentration of (mutant) nisin at which less than a 1% increase in the OD600nm occurred. The solubilities of nisin A, nisin Z and the mutants N27K-nisin Z and H31K-nisin Z were determined in the range between pH 6.0 and pH 7.5. It can be seen from the results that in this range nisin Z is 1.5 to 2 times more soluble than nisin A and that the nisin Z mutants having an additional positive charge are 5 to 10 times more soluble than nisin A (Table 2).

[15] = tested on: Strepococcus thermophilus (S.t.) strain 3218; assay: MIC bioassay from OD600nm inhibition curves; type: cell-based; conditions: 3 hours at 37° C., without shaking; less than 1% increase in OD600nm
Method: as §5

[16] = tested on: Bacillus cereus (B.c.) strain 5227; assay: MIC bioassay from OD600nm inhibition curves; type: cell-based; conditions: 6 hours at 30° C., shaken; less than 1% increase in OD600nm
Method: as §5

Structure (SMILES): C=C(NC(=O)[C@@H](NC(=O)[C@H](Cc1c[nH]cn1)NC(=O)[C@@H](NC(=O)[C@H](CO)NC(=O)[C@@H]1CS[C@@H](C)[C@H]2NC(=O)[C@H](C)NC(=O)[C@H](NC(=O)[C@H](CCCCN)NC(=O)[C@H](CCSC)NC(=O)[C@H](CC(N)=O)NC(=O)[C@@H]3CS[C@@H](C)[C@@H](NC(=O)[C@H](CCCCN)NC(=O)[C@@H]4CS[C@@H](C)[C@@H](NC(=O)[C@@H]5CSC[C@@H](NC(=O)/C(=C/C)NC(=O)[C@@H](N)[C@@H](C)CC)C(=O)N[C@@H]([C@@H](C)CC)C(=O)NC(=C)C(=O)N[C@@H](CC(C)C)C(=O)N5)C(=O)N5CCC[C@H]5C(=O)NCC(=O)N4)C(=O)NCC(=O)N[C@@H](C)C(=O)N[C@@H](CC(C)C)C(=O)N[C@@H](CCSC)C(=O)NCC(=O)N3)[C@H](C)SC[C@H](NC2=O)C(=O)N[C@@H](CC(N)=O)C(=O)N1)[C@@H](C)CC)C(C)C)C(=O)N[C@@H](CCCCN)C(=O)O [nisin Z]
- diffusion rate in an agar medium ([1]; compared with nisin A): higher diffusion rate
- zones of growth inhibition (diameter of halo) ([1]; concentrations above 0.03 μg/ml, versus same amount of nisin A): always found to be greater than those obtained with the same amount of nisin A
- antimicrobial activity (inhibition spectrum) [2]: comparably high antimicrobial activity
- antimicrobial activity (inhibition spectrum) [3]: comparably high antimicrobial activity
- antimicrobial activity (inhibition spectrum) [4]: comparably high antimicrobial activity
- antimicrobial activity (inhibition spectrum) [5]: comparably high antimicrobial activity
- antimicrobial activity (inhibition spectrum) [6]: comparably high antimicrobial activity
- zones of growth inhibition [7]: Comparable results
- minimum inhibitory concentration (MIC) [8]: 0.015 µg/mL (≈ 0.0045 µM)
- minimum inhibitory concentration (MIC) [9]: 0.03 µg/mL (≈ 0.00901 µM)
- sensitivity for trypsin [10]: comparable
- sensitivity for chymotrypsin [11]: comparable
- reaction in competitive ELISA [12]: no reaction
- solubility compared with nisin A ([13]; alkaline pH): greater than that of nisin A
- Solubility ([13]; pH 6.0): 2600 µg/mL (≈ 781 µM)
- Solubility ([13]; pH 6.5): 1500 µg/mL (≈ 450 µM)
- Solubility ([13]; pH 7.0): 800 µg/mL (≈ 240 µM)
- Solubility ([13]; pH 7.5): 600 µg/mL (≈ 180 µM)
- Minimum Inhibitory Concentration, Micrococcus flavus [14]: 11 µg/L
- Minimum Inhibitory Concentration, S. thermophilus [15]: 6 µg/L
- Minimum Inhibitory Concentration, B. cereus [16]: 130 µg/L
